{"source": "patent US9809623B2", "about": "“α4β7 peptide monomer and dimer antagonists” (Protagonist Therapeutics, Inc., priority 2014, dated 2017)", "key": {"[1]": {"tested_on": "αEβ7 integrin", "experiment": "FACS binding in cynomolgus monkey blood (α4β7 / αEβ7 expressing cells)", "format": "cell-based", "details": "cynomolgus monkey blood", "method": "Blood from cynomolgus monkeys was also analyzed by FACS.\nBinding to αEβ7 integrin in cyno blood was also tested. Cyno blood was incubated with 1 nM Peptide X-Alexa 647, and cells expressing α4β7 or αEβ7 were analyzed by FACS. […] Binding to α4β7 was specific, because it could be blocked in the presence of a large excess (1 uM) of unlabeled Peptide X. Therefore under these conditions, it was concluded that Peptide X binds α4β7, not αEβ7."}, "[2]": {"tested_on": "BALB/c mice, chronic DSS colitis", "experiment": "15 day chronic DSS colitis mouse model", "format": "in vivo", "method": "To further evaluate the efficacy of peptides of the present invention in treating colitis, a chronic DSS colitis mouse model was used to examine the effects of orally administered Peptide X or another peptide, Peptide XX, as compared to vehicle control or the antibodies, MECA 367 and DATK32. Peptide XX is a dimer having the following structure, where DIG links the two peptide monomers by their C-termini:\nIn this 15 day chronic DSS colitis study, BALB/c mice were treated continuously with 2.5% DSS. Peptide X dosing was 55 mg/kg/day, 17 mg/kg/day or 6 mg/kg/day in drinking water. Peptide XX dosing was 10 mg/kg PO BID plus 0.2 mg/ml in drinking water. The anti-α4β7 Ab DATK32 was dosed 25 mg/kg IP every 3 days, and the anti-MAdCAM Ab MECA 367 was dosed 8 mg/kg IP daily. After takedown, distal colon sections were fixed for histopathology and processed for β7+ cell IH staining using the anti-β7 antibody M293."}, "[3]": {"target": "T1, αLβ2 (Homo sapiens, UniProt P05107+P20701)", "T1 sequence (P20701 26-1170)": "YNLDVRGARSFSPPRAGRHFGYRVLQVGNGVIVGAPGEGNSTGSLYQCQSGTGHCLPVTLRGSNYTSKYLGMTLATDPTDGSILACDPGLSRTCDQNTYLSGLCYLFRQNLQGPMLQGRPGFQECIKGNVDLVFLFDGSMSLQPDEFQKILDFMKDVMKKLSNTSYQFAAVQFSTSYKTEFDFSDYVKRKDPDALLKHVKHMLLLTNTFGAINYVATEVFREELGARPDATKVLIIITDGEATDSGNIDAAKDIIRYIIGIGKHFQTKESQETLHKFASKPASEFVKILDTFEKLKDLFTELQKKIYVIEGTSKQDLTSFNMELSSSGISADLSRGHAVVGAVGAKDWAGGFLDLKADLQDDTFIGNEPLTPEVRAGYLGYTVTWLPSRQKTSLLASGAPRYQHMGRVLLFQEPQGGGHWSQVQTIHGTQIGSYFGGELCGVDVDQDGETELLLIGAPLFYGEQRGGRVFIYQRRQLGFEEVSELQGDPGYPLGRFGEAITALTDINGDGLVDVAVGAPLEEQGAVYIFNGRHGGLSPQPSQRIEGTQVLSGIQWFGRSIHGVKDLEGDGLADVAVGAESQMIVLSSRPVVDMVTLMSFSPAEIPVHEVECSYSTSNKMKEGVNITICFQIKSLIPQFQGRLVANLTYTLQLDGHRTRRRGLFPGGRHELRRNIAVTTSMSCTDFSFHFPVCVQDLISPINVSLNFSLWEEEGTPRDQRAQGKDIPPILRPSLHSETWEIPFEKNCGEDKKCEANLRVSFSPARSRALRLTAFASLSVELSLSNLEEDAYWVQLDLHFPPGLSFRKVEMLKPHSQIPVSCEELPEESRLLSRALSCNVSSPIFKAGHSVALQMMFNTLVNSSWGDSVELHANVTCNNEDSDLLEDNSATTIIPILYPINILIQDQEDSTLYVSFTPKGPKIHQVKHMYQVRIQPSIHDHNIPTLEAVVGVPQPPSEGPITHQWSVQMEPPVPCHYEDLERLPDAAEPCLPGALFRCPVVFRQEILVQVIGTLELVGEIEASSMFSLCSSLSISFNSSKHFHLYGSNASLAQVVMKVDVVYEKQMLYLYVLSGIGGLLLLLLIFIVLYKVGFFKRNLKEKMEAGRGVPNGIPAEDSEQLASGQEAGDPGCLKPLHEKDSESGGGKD", "T1 sequence (P05107 23-769)": "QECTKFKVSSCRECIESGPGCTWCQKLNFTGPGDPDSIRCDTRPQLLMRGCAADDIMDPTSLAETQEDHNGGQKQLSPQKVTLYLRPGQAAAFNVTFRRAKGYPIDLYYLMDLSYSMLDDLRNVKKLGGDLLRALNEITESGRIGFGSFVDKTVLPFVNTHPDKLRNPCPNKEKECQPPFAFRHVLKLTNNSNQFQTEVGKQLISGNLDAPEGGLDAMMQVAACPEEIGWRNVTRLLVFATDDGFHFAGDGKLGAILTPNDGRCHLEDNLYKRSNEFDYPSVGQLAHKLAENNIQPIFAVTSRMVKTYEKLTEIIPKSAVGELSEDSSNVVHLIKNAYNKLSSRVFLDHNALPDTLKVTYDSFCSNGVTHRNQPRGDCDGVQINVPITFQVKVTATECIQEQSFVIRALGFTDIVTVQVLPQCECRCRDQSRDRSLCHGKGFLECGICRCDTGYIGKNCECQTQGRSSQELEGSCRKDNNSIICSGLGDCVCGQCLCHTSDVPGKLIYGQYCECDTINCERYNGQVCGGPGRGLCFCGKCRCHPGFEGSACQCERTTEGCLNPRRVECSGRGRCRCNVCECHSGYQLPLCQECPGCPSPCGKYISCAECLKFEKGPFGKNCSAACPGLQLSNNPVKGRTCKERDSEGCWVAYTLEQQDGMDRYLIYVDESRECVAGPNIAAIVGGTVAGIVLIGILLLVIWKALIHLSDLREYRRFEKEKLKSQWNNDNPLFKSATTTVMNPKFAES", "experiment": "IC50 for αLβ2 (assay not further described)", "method": "Biochemical competition ELISA assays were performed for α4β7 and α4β1 integrins. The ELISA assay for α4β7 is based on binding of MAdCAM-1 to immobilized α4β7, whereas the α4β1 ELISA relies on binding of soluble α4β1 to immobilized VCAM-1. These assays are described in Example 2. Under 1 mM Mg^2+ binding conditions, the IC50 for Peptide X was 3 nM and >10,000 nM for α4β7 and α4β1, respectively. In addition, the IC50 for Peptide X was >100 uM for both α4β1 and αLβ2. The IC50 of Peptide X for α4β7 T cells was 1 nM."}, "[4]": {"experiment": "PK studies in normal or DSS treated mice and rats, oral dosing", "format": "in vivo"}, "[5]": {"target": "T1, αLβ2", "experiment": "PBMC memory T cell adhesion to ICAM-1", "format": "cell-based", "design": "endogenous in cells", "details": "memory T cells isolated from human PBMC donors; read-out: IC50 (nM), memory T cells, Ligand ICAM-1"}, "[6]": {"tested_on": "C57BL/6 mice, DSS colitis", "experiment": "Additional 9 day DSS colitis studies", "format": "in vivo, mouse", "method": "In this 9 day DSS colitis study, C57BL/6 mice were treated with 3% DSS from Day 1 to Day 6, and switched to normal water until Day 10. Daily dosing was PO BID plus drinking water for Peptide X, and 25 mg/kg IP every 3 days for the anti-α4β7 antibody DATK32. PP and blood were collected and levels of α4β7+ memory T cells analyzed by FACS."}, "[7]": {"experiment": "FIG. 5", "description": "Table printed on a drawing sheet, FIG. 5\nFootnotes: SIF- simulated intestinal fluid (porcine) / RIW- rat intestinal wash / HIF- human intestinal fluid / CW- colonic wash (rat) / IMH- intestinal mucosal homogenate (rat) / CMG- colonic mucosal homogenate (rat) / SGF- simulated gastric fluid (porcine) / Hu S9- human intestinal S9 fraction / RL S9- rat liver S9\nFirst reader's note: The first column is printed empty in all rows, so no substance name appears on the sheet; the column head reads CMH while the legend prints CMG."}, "[8]": {"tested_on": "C57BL/6 male mice, DSS colitis", "format": "in vivo", "method": "Colitis was induced in C57BL/6 male mice (10 animals per group) by exposure to 3% DSS-treated drinking water from day 0 to day 5, when animals were shifted to normal drinking water. Once daily, animal deaths were recorded, and surviving animals were weighed and assessed visually for the presence of diarrhea and/or bloody stool. Immediately prior to sacrifice on day 9, colitis severity was assessed in all animals using video endoscopy, and the resulting images were scored for colitis severity by an observer blinded to group identity.\nStarting on day 0, mice were given twice-daily oral doses of either a vehicle/sham control (Group 1) or Peptide X (Group 2: 10 mg/kg, PO, BID). On day 9, only the AM treatment dose was administered. Animals in Group 2 also were administered Peptide X in their drinking water at a concentration of 0.2 mg/mL. The drinking water bottle weights for Groups 1 and 2 were measured, and water consumption was used to estimate the peptide dose ingested via the drinking water. Based on daily water consumption, the average daily Peptide X dose from the combination of oral gavage and drinking water was estimated to be 49 mg/kg.\nMice were sacrificed on day 9, approximately four hours after the final of gavage dose administration. Spleen, Peyer's patches (PP), mesenteric lymph nodes (MLN), and blood were collected from each animal and processed for FACS analysis of α4 and β7 expression on TH memory cells. Takedown and FACS analysis occurred on the same day.\nFor PK measurements, colon sections from the proximal and distal colon were collected at ˜4 hours after the last AM dose and analyzed by mass spectrometry. Exposure in the proximal colon was approximately 3-fold higher than that in the distal colon (FIG. 12). The concentration of Peptide X in the blood was 84-fold and 31-fold lower compared to that in the proximal and distal colon, respectively. Nonetheless at this time point, the plasma concentration was ˜80-fold greater than the Peptide IC50 value for blocking α4β7 binding to MAdCAM."}, "[9]": {"details": "10 mg/kg PO BID plus 0.2 mg/mL in drinking water, day 9"}, "[10]": {"details": "10 mg/kg PO BID plus 0.2 mg/ml in drinking water"}}, "note": "Numbered stars: 1 amine (or outer) side, 2 acyl side, 3 side chain; on linkers, the order of the positions; unused ones are H or OH. Bridge positions count the residues as written; N and C are the ends. Square brackets hold non-standard residues; d marks the D form. Peptide text beside a SMILES is read from it. I, II: the chains in the order shown. ξ: configuration not given here. Phe(4-tBu) = CC(C)(C)c1ccc(C[C@H](N)C(=O)O)cc1; Diglycolyl = O=C(COCC(=O)[*:2])[*:1]; NMeR = CN[C@@H](CCCNC(=N)N)C(=O)O; β3hE = N[C@@H](CCC(=O)O)CC(=O)O; Thr(3ξ) = CC(O)[C@H](N)C(=O)O; Pen = CC(C)(S)[C@H](N)C(=O)O", "data": [{"compound": "CC(=O)N[C@@H]1C(=O)N(C)[C@@H](CCCNC(=N)N)C(=O)N[C@@H](CO)C(=O)N[C@@H](CC(=O)O)C(=O)N[C@@H](C(C)O)C(=O)N[C@@H](CC(C)C)C(=O)N[C@H](C(=O)N[C@@H](Cc2ccc(C(C)(C)C)cc2)C(=O)N[C@@H](CCC(=O)O)CC(=O)N[C@H](CCCCNC(=O)COCC(=O)NCCCC[C@@H](NC(=O)C[C@H](CCC(=O)O)NC(=O)[C@H](Cc2ccc(C(C)(C)C)cc2)NC(=O)[C@H]2NC(=O)[C@H](CC(C)C)NC(=O)[C@H](C(C)O)NC(=O)[C@H](CC(=O)O)NC(=O)[C@H](CO)NC(=O)[C@H](CCCNC(=N)N)N(C)C(=O)[C@@H](NC(C)=O)C(C)(C)SSC2(C)C)C(N)=O)C(N)=O)C(C)(C)SSC1(C)C", "note": "(stereo partly drawn) [Peptide X, [Ac-Pen-(N-Me-Arg)-Ser-Asp-Thr-Leu-Pen-(Phe(4-tBu))-(β-homoGlu)-(D-Lys)]2-DIG] (I: Ac-[Pen][NMeR]SD[Thr(3ξ)]L[Pen][Phe(4-tBu)][β3hE][dK]-NH2 / II: Ac-[Pen][NMeR]SD[Thr(3ξ)]L[Pen][Phe(4-tBu)][β3hE][dK]-NH2; disulfide I:1-I:7, II:1-II:7; linker I:10-II:10 via Diglycolyl)", "values": [{"measurement": "binding site on α4β7 relative to vedolizumab", "setting": "[1]", "value": "binds to a site on α4β7 that is distinct from the binding site for vedolizumab"}, {"measurement": "infiltration of B7+ cells into the lamina propria of the distal colon", "setting": "[2]; all doses: 55, 17 or 6 mg/kg/day in drinking water", "value": "reduced infiltration"}, {"measurement": "IC50", "setting": "[3]", "value": "> 100", "unit": "µM"}, {"measurement": "levels in the blood and urine after oral dosing", "setting": "[4]", "value": "no significant measurable levels in the blood and urine"}, {"measurement": "IC50", "setting": "[5]", "value": "> 100000", "unit": "nM"}, {"measurement": "body weight loss and mucosal injury as assessed by endoscopy", "setting": "[6]; DSS mice orally dosed daily for 9 days", "value": "dose-dependent reduction in body weight loss and mucosal injury"}, {"measurement": "CD4+CD44highCD45RBlowβ7+ T cells in MLN, Peyer's Patches, spleen and blood", "setting": "[6]; DSS mice orally dosed daily for 9 days, FACS", "value": "dose dependent reduction"}, {"measurement": "α4β7+ T cells in gut lymphoid tissues and blood", "setting": "[6]; PO BID plus drinking water", "value": "reduced α4β7+ T cells in gut lymphoid tissues and redirected them to blood"}, {"measurement": "Intestinal half-life | CMH", "setting": "[7]", "value": ">6", "unit": "h"}, {"measurement": "Intestinal half-life | CW", "setting": "[7]", "value": ">6", "unit": "h"}, {"measurement": "Intestinal half-life | HIF", "setting": "[7]", "value": ">24", "unit": "h"}, {"measurement": "Intestinal half-life | IMH", "setting": "[7]", "value": ">6", "unit": "h"}, {"measurement": "Intestinal half-life | SIF", "setting": "[7]", "value": 11, "unit": "h"}, {"measurement": "Metabolism | Hu S9", "setting": "[7]", "value": ">6", "unit": "h"}, {"measurement": "Metabolism | RL S9", "setting": "[7]", "value": ">6", "unit": "h"}, {"measurement": "endoscopy score (mean±SD)", "setting": "[8]; [9]", "value": "1.78±1.5"}, {"measurement": "reduction of endoscopy scores vs vehicle", "setting": "[8]; [9]", "value": 32, "unit": "%"}, {"measurement": "effect on weight loss, fluid intake, colon weight or length, presence of bloody stool and diarrhea", "setting": "[8]; 10 mg/kg PO BID plus drinking water", "value": "no significant effect"}, {"measurement": "visual assessment of endoscopy images", "setting": "[8]; compared to the vehicle control", "value": "reduced colonic friability and improved mucosal healing"}, {"measurement": "Exposure in the proximal colon higher than in the distal colon", "setting": "[8]; mouse, in vivo", "value": "approximately 3 fold"}, {"measurement": "decrease in percentage of α4β7+ memory cells relative to total cells in Peyer's Patches", "setting": "[8]; vs vehicle, day 9", "value": 55, "unit": "%"}, {"measurement": "decrease in percentage of α4β7+ memory cells relative to total cells in the MLN", "setting": "[8]; vs vehicle, day 9", "value": 23, "unit": "%"}, {"measurement": "increase in total α4β7 memory cells per mL blood", "setting": "[8]; vs vehicle, day 9", "value": 42, "unit": "%"}, {"measurement": "increase in total α4β7 memory cells recovered from the spleen", "setting": "[8]; vs vehicle, day 9", "value": 73, "unit": "%"}]}, {"compound": "CC(=O)N[C@@H]1C(=O)N(C)[C@@H](CCCNC(=N)N)C(=O)N[C@@H](CO)C(=O)N[C@@H](CC(=O)O)C(=O)N[C@@H]([C@@H](C)O)C(=O)N[C@@H](CC(C)C)C(=O)N[C@H](C(=O)N[C@@H](Cc2c[nH]c3ccccc23)C(=O)N[C@@H](CCC(=O)O)CC(=O)N[C@H](CCCCNC(=O)COCC(=O)NCCCC[C@@H](NC(=O)C[C@H](CCC(=O)O)NC(=O)[C@H](Cc2c[nH]c3ccccc23)NC(=O)[C@H]2NC(=O)[C@H](CC(C)C)NC(=O)[C@H]([C@@H](C)O)NC(=O)[C@H](CC(=O)O)NC(=O)[C@H](CO)NC(=O)[C@H](CCCNC(=N)N)N(C)C(=O)[C@@H](NC(C)=O)C(C)(C)SSC2(C)C)C(N)=O)C(N)=O)C(C)(C)SSC1(C)C", "note": "[compound 213, [Ac-Pen-(N-Me-Arg)-Ser-Asp-Thr-Leu-Pen-Trp-(β-homoGlu)-(D-Lys)-NH2]2-DIG] (I: Ac-[Pen][NMeR]SDTL[Pen]W[β3hE][dK]-NH2 / II: Ac-[Pen][NMeR]SDTL[Pen]W[β3hE][dK]-NH2; disulfide I:1-I:7, II:1-II:7; linker I:10-II:10 via Diglycolyl)", "values": [{"measurement": "colon macroscopic and histopathology scores", "setting": "[2]; [10]", "value": "reduced colon macroscopic and histopathology scores comparable to the antibodies"}, {"measurement": "infiltration of B7+ cells into the lamina propria of the distal colon", "setting": "[2]; [10]", "value": "reduced infiltration"}]}]}
